Assay results published in US8563596B2, “Enantiomerically pure compounds for the treatment of proliferative disorders” (Piramal Enterprises Limited, priority 2006, dated 2013).
Read-outs that look alike come from different tables or passages of the source.

Experiments:
[1] = target: T1, CDK2-cyclin E (Homo sapiens, UniProt P24941); experiment: CDK2/Cyclin E kinase assay (32P phosphorylation of GST-Rb, filter plate); type: biochemical; conditions: 30 min at 30° C.; GST-Rb substrate
T1 construct: made in house; host or cells: Sf9 insect cells (baculovirus)
Source text: (§1) CDK4/Cyclin D1 Kinase Assay and CDK2/Cyclin E Kinase Assay
(§2) The assays measure phosphorylation of retinoblastoma protein (Rb) by CDK4 or CDK2 upon activation by cyclin D1 or cyclin E, respectively, through the transfer of (γ^32P)-phosphate from γ^32P-ATP in a 96-well filter plate assay.
(§3) CDK4 or CDK2 was co-expressed with cyclin D1 or cyclin E, respectively, by a baculovirus expression system in insect cells. For this, 1×10^7 Sf9 cells were coinfected with baculoviruses containing human CDK-4 or 2 and cyclin D1 or E genes and after 72 hours cells were lysed in 500 μl of a lysis buffer (50 mM HEPES (pH 7.5), 10 mM MgCl2, 1 mM DTT, 5 μg/ml of aprotinin, 5 μg/ml of leupeptin, 0.1 mM NaF, 0.2 mM phenylmethylsulfonyl fluoride (PMSF), and sodium orthovanadate. Centrifuged lysate was purified on a GST-sepharose column. Purity of the proteins was checked by SDS-PAGE followed by western blots using specific antibodies (Santacruz Biotec, USA) to CDK4 or CDK2.
(§4) GST-retinoblastoma (Rb) (aa 776-928) fusion protein is expressed in the bacteria E. coli and purified by GSH-Sepharose affinity chromatography. The GST-Rb bound to these beads served as the substrate in the assay.
(§5) Quantitation was by scintillation detection of (^32P)-GST-Rb in 96-well filter plates using Top Count scintillation 96-well counter (Packard, USA).
The CDK4 or CDK2 enzyme assay was run in 96-well format using Millipore ultiscreen filtration plates. All assay steps took place in a single filter plate (Unifilter plates, Packard, USA). The filtration wells were pre-wet with kinase buffer (100 μl/well) and the solution was then removed by the application of vacuum, with the filter plate on a vacuum manifold and the vacuum on. 50 μl of GST-Rb bound to GSH-Sepharose beads in kinase buffer (0.5 μg GST-Rb/50 μl) was added to each well and vacuum was applied to remove the buffer. A further 25 μl of a reaction mix containing ATP (cold+hot) and phosphatase inhibitors diluted in kinase buffer were added to each well, followed by the addition of test compound (4× final concentration in kinase buffer) or kinase buffer (control) in an additional 25 μl volume. Finally 50 μl (100 ng) of human CDK-4/D1 or CDK-2/E enzyme in kinase buffer was added to each well to initiate the reaction. The reaction was incubated for 30 min at 30° C. After the reaction was complete, vacuum was applied and the plate was washed with the wash buffer (TNEN buffer) three times. The filter plate was air-dried and placed in a Multiscreen adapter plate. To each well, 30 μl Packard Microscint-O cocktail was added and the plate was covered with a Top-Seal A film. The plate was counted in a Packard Top Count Scintillation Counter for 10 min. […]

[2] = target: T2, CDK4-cyclin D1 (Homo sapiens, UniProt P11802); experiment: CDK4/Cyclin D1 kinase assay (32P phosphorylation of GST-Rb, filter plate); type: biochemical; conditions: 30 min at 30° C.; GST-Rb substrate
T2 construct: made in house; host or cells: Sf9 insect cells (baculovirus)
Source text: as §1, §2, §3, §4, §5
The CDK4 or CDK2 enzyme assay was run in 96-well format using Millipore ultiscreen filtration plates. All assay steps took place in a single filter plate (Unifilter plates, Packard, USA). The filtration wells were pre-wet with kinase buffer (100 μl/well) and the solution was then removed by the application of vacuum, with the filter plate on a vacuum manifold and the vacuum on. 50 μl of GST-Rb bound to GSH-Sepharose beads in kinase buffer (0.5 μg GST-Rb/50 μl) was added to each well and vacuum was applied to remove the buffer. […] The plate was counted in a Packard Top Count Scintillation Counter for 10 min. […]

[3] = tested on: Calu1 (Lung); type: cell-based, human
Description: (§6) Exponentially growing cultures of […] human cancerous cell lines (Calu1 lung, A-549 lung, HT-29 colon, HL-60 Promyelocytic Leukemia, PC-3 Prostate, H-460 Lung, MDA-MB-231 Breast, MCF-7 Breast, HeLa Cervix, Colo-205 Colon, H9 Lymphoma (T Cells), U-937 Histiocytic Lymphoma (monocytes) and CaCO-2 Colon) obtained from NCCS, Pune, India were used. The in vitro cell proliferation (NCl, USA protocol) and cytotoxicity assays were carried out using standard procedures viz. ^3H-Thymidine uptake and MTS assay, respectively (For ^3H-Thymidine uptake: Cell Biology, A Laboratory Handbook, 1998, Vol 1 Ed Julio E. Celis, and For MTS assay: Promega Protocol, USA, 2000). In the ^3H-Thymidine uptake assay, cells were harvested after 72 hours onto GF/B unifilter plates (Packard, USA) using a Packard Filtermate Universal harvester and the plates were counted on a Packard TopCount 96-well liquid scintillation counter. The concentration of compound at which 50% of proliferative activity was inhibited (IC50) and the degree of toxicity of compound were calculated for representative compounds and their pharmaceutically acceptable salts described in the Examples.

[4] = tested on: A-549 (Lung); type: cell-based, human
Description: as §6

[5] = tested on: HT-29 (Colon); type: cell-based, human
Description: as §6

[6] = tested on: Calu1 (Lung); experiment: In vitro cell proliferation, 3H-Thymidine uptake assay; type: cell-based, human; conditions: cells harvested after 72 hours
Description: as §6

[7] = tested on: A-549 (Lung); experiment: as above; type: cell-based, human; conditions: cells harvested after 72 hours
Description: as §6

[8] = tested on: HT-29 (Colon); experiment: as above; type: cell-based, human; conditions: cells harvested after 72 hours
Description: as §6

T2 sequence (P11802 whole entry): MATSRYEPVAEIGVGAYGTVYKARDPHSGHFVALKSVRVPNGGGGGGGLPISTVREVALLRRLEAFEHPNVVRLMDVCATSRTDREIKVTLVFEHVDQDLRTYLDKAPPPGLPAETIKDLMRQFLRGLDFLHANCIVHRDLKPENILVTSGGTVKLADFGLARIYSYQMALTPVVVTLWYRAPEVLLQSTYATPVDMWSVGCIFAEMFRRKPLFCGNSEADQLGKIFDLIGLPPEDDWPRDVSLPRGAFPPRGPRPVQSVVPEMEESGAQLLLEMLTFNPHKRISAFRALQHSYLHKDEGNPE
T2 sequence (P24385 whole entry partner): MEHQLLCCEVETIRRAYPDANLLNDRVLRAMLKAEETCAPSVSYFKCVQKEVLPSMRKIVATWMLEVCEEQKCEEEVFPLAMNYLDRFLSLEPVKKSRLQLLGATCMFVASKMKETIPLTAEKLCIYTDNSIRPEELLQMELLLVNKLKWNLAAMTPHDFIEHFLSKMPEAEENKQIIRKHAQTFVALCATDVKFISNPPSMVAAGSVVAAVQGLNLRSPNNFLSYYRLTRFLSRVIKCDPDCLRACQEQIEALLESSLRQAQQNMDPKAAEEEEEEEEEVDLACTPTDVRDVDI

| Molecule | melting point [°C] | IC50 [1] [µM] | IC50 [2] [µM] | IC50 [3] [µM] | IC50 [4] [µM] | IC50 [5] [µM] | IC50 [6] [µM] | IC50 [7] [µM] | IC50 [8] [µM] |
| --- | --- | --- | --- | --- | --- | --- | --- | --- | --- |
| CN1CC[C@@H](c2c(O)cc(O)c3c(=O)cc(-c4cc(F)ccc4Cl)oc23)[C@@H]1CO | 253 to 254 | – | – | – | – | – | – | – | – |
| (+)-trans-2-(2-Chlorophenyl)-5,7-dihydroxy-8-(2-hydroxymethyl-1-methyl-pyrrolidin-3-yl)-chromen-4-one hydrochloride [Example 10] | – | 2.8 | 0.065 | 0.88 | 0.7 | 0.58 | < 0.3 | 0.18 | 0.68 |
| (−)-trans-2-(2-Chloro-4-nitrophenyl)-5,7-dihydroxy-8-(2-hydroxymethyl-1-methylpyrrolidin-3-yl)-chromen-4-one hydrochloride [Example 97-(D)] | – | > 10 | 1 | – | – | – | – | – | 10 |
| (−)-trans-2-(2-Chlorophenyl)-5,7-dihydroxy-8-(2-hydroxymethyl-1-methyl pyrrolidin-3-yl)-chromen-4-one hydrochloride [Example 96-(F)] | – | 21 | – | 16.3 | 16 | 17.9 | – | 10 | 25 |
| (+)-trans-2-(2-Chloro-4-nitrophenyl)-5,7-dihydroxy-8-(2-hydroxymethyl-1-methylpyrrolidin-3-yl)-chromen-4-one hydrochloride [Example 50] | – | 1.7 | 0.045 | 1.4 | 1.2 | 1.1 | < 0.3 | 1.2 | 1.5 |
| COc1cc(OC)c2c(=O)cc(-c3ccccc3Cl)oc2c1[C@@H]1CCN(C)[C@H]1CO | 91 to 93 | – | – | – | – | – | – | – | – |
